Several values for one entry are separate records, joined by “and”; a condition that tells them apart may be missing. Identical values can stand only once. Non-standard residues stand in square brackets, D forms with d. Residues, ends and D or L forms follow the SMILES beside them. pGlu = O=C1CC[C@@H](C(=O)O)N1
How the values were obtained:
[1] = tested on: terminal portion of the guinea pig ileum; assay: Antagonistic activity against substance P on the terminal portion of the guinea pig ileum; format: cell-based; conditions: analog at 10^-4 (concentration unit not given)
Description: The antagonistic activities of the analogs were evaluated using the terminal portion of the guinea pig ileum, as described by Yamaguchi et al. [Acta Chem. Scand. B33, 63 (1979)]. The biological assay data are in Table IV.
The sequence of substance P (SP) is expressed in the top of Table IV. The antagonistic activity is defined as the fold-increase in the concentration of SP in the presence of the analog to give 50% of the maximal response which is elicited by SP alone. The sequences of the analogs which were designed and synthesized are in Table IV. The eleven amino acids of SP are spaced across the top line to facilitate visual comparison of the amino acids in SP with those in the analogs. For example, analog I is also spaced across the page to show the sequence relationship to SP. On this basis, analog I is H-Arg^1,Pro^2,Lys^3,Pro^4,D-Phe^5,Gln^6,D-Trp^7,Phe^8 D-Trp^9,Leu^10,Leu^11 -NH2, but on the basis of conventional peptide nomenclature, analog I is expressed as [D-Phe^5,D-Trp^7,D-Trp^9,Leu^11 ]-SP5-11.

[2] = SP = 1; cited from earlier work
[3] = Solubility in 50% ethanol (footnote to Table IV); format: physicochemical

With `CC(C)C[C@H](NC(=O)[C@@H](Cc1c[nH]c2ccccc12)NC(=O)[C@H](Cc1ccccc1)NC(=O)[C@@H](Cc1c[nH]c2ccccc12)NC(=O)[C@H](CCC(N)=O)NC(=O)[C@@H]1CCC(=O)N1)C(=O)N[C@H](C(N)=O)[C@@H](C)O` [Analog III, [Glp^5,D-Trp^7,D-Trp^9,Thr^11]--SP5-11] ([pGlu]Q[dW]F[dW]LT-NH2) the “Fold increase in conc. of SP in the presence of the analog to give 50% of the maximal response elicited by SP alone” value [1] was 2 fold.
For `CC(C)C[C@H](NC(=O)[C@H](CC(C)C)NC(=O)[C@@H](Cc1c[nH]c2ccccc12)NC(=O)[C@H](Cc1ccccc1)NC(=O)[C@@H](Cc1c[nH]c2ccccc12)NC(=O)[C@H](CCC(N)=O)NC(=O)[C@@H]1CCC(=O)N1)C(N)=O` [Analog V, [Glp^5,D-Trp^7,D-Trp^9,Leu^11]--SP5-11] ([pGlu]Q[dW]F[dW]LL-NH2), the “Fold increase in conc. of SP in the presence of the analog to give 50% of the maximal response elicited by SP alone” value [1] was 17 fold.
For “Glp-Gln-Phe-Phe-Gly-Leu-Met-NH2 ([pGlu]QFFGLM-NH2; SMILES CSCC[C@H](NC(=O)[C@H](CC(C)C)NC(=O)CNC(=O)[C@H](Cc1ccccc1)NC(=O)[C@H](Cc1ccccc1)NC(=O)[C@H](CCC(N)=O)NC(=O)[C@@H]1CCC(=O)N1)C(N)=O) [truncated heptapeptide analog of SP from Yanaihara et al]”, the “Relative activity in comparison with SP as 1” value [2] is given as 1.7.
In the case of “[D-Phe^5,D-Trp^7,D-Trp^9,Leu^11 ]-SP5-11 [Analog I]”, the Solubility [3] is reported as “difficulty soluble in 50% ethanol” and the “Fold increase in conc. of SP in the presence of the analog to give 50% of the maximal response elicited by SP alone” value [1] is reported as > 200 fold and 200 fold.
